# Tested on: hypoxic pulmonary vasoconstriction (HPV) in mice
# Assay: Redistribution of pulmonary blood flow (QLPA/QPA) after left mainstem bronchus occlusion (LMBO), murine HPV model
# Type: in vivo, mouse
# Protocol: Group 3: endotoxin-treated+L-NIL. SV129/B6F1 wild-type mice (n=5) were injected intraperitoneally with 10 mg/kg E. coli 011B4 endotoxin dissolved in 0.2 mL saline. Three hours after the endotoxin challenge, mice were treated with L-NIL 5 mg/kg intraperitoneally. Studies were performed 22 hours after the endotoxin challenge. In additional SV129/B6F1 mice with (n=5) and without (n=4) a prior challenge of endotoxin (22 hours earlier), the acute response to an intravenous bolus of 5 mg/kg L-NIL administered during LMBO, was studied.
# Group 4: prolonged exposure to 4 or 40 ppm NO. Saline-treated SV129 wild-type mice (n=5) and NOS2-deficient mice (n=5) breathed 40 ppm NO in air for 22 hours and were studied 1 hour after discontinuation of NO inhalation. SV129 wild-type mice (n=5) and NOS2-deficient mice (n=5) breathed 40 ppm NO in air for 22 hours after challenge with 10 mg/kg endotoxin intraperitoneally and were studied 1 hour after discontinuation of NO inhalation. Additional NOS2-deficient mice (n=4) breathed 4 ppm of NO in air for 22 hours after challenge with 10 mg/kg endotoxin intraperitoneally and were studied 1 hour after discontinuation of NO inhalation.
# Experimental preparation. Mice were anesthetized by intraperitoneal injection of ketamine (0.1 mg/g body weight [bw]). Tracheostomy and arterial catheterization were performed as described previously (Steudel et al., 1997, Circ. Res. 81:34-41). A custom-made endotracheal tube (22G Angiocath; Becton Dickinson Healthcare Systems, Sandy, Utah, USA), combined with a 2 French Fogarty arterial embolization catheter (Baxter Healthcare Corp., Irvine, Calif., USA) was inserted into the trachea, with the balloon tip of the Fogarty catheter initially remaining in the trachea. Volume-controlled ventilation was initiated at a respiratory rate of 110-120 breaths per minute, at FiO2 1.0, a peak inspiratory pressure of 13 cm H2O, and a positive end-expiratory pressure level of 2-3 cm H2O. A right parasternal thoracotomy was performed, and a small-vessel ultrasonic flow probe (1RB; Transonic Instruments, Ithaca, N.Y.) was placed around the right pulmonary artery and fixed in position using a micromanipulator (X-tra Hand; TechniTool, Plymouth, Pa.). A 4-0 silk suture was positioned around the left main pulmonary artery to allow transient vascular occlusion. A pulmonary artery catheter (PE10) was inserted into the main pulmonary artery by direct puncture. In other experiments, a lower thoracic aortic flow probe was placed as reported previously (Steudel et al., supra).
# Blood flow and pressure measurements. Mean systemic arterial pressure (PSA), mean pulmonary artery pressure (PPA), and in some studies PLA, were continuously monitored using biomedical amplifiers (Hewlett Packard 8805C, Palo Alto, Calif.; Siemens Sirecust 960, Danvers, Mass.). Mean lower thoracic aortic flow (QLTAF) and right pulmonary artery flow (QRPA) were measured with small vessel flow probes connected to a flowmeter (T106; Transonic Instruments). In some experiments, left ventricular end-diastolic pressure was measured with a 1.4 Fr. Millar catheter. The catheter was advanced through the right carotid artery into the left ventricle. […] All monitoring equipment was calibrated before each experiment.
# Differential measurement of left and right pulmonary artery flow. To assess the contribution of QRPA and left pulmonary artery flow (QLPA) to total pulmonary artery flow (QPA), transient occlusion (90 seconds) of the left pulmonary artery (QLPA) was performed. QRPA during acute left pulmonary artery occlusion was considered to be QPA (i.e., cardiac output) and correlated closely (r2=0.88; y=0.95x+0.38; n=9) with QLTAF. QLPA was calculated as the difference between QRPA during left pulmonary artery occlusion (QPA) and QRPA with a patent left pulmonary artery (QLPA=QPA−QRPA). Absolute values of respective flows were recorded, and the fractional distribution of flow to the right and left lungs (QRPA/QPA and QLPA/QPA) was calculated. […]
smiles,measurement,setting,value
"[N]=O [NO, Nitric oxide]",reduction of QLPA/QPA after LMBO,endotoxin-treated NOS2-deficient mice after prolonged inhalation of 40 ppm NO for 22 hours,20±7%
same,reduction of QLPA/QPA after LMBO,endotoxin-treated NOS2-deficient mice breathing 4 ppm NO for 22 hours,62±2%
same,reduction of QLPA/QPA after LMBO,endotoxin-treated wild-type mice breathing 40 ppm NO for 22 hours,19±10%
same,reduction of QLPA/QPA after LMBO,"saline-treated NOS2-deficient mice after breathing 40 ppm NO for 22 hours, measured 1 hour later",50±11%
same,reduction of QLPA/QPA after LMBO,"saline-treated wild-type mice after breathing 40 ppm NO for 22 hours, measured 1 hour later",51±10%
